Where two headings read alike, the source gives them in different places.
Assays:
[1] = tested on: bCSE; set-up: method as in PMID 34112687, PMID 37110802, doi:10.1016/j.mencom.2024.02.030, PMID 39970094, PMID 38771206; settings: Figure 1; cited from earlier work
[2] = tested on: hCSE; set-up: method as in PMID 34112687, PMID 37110802, doi:10.1016/j.mencom.2024.02.030, PMID 39970094, PMID 38771206; settings: Figure 1; cited from earlier work
[3] = biological target: bCSE; settings: cited from earlier work
[4] = tested on: B. subtilis cells; experiment: MIC of the antibiotic alone, microdilution method (CLSI); format: cell-based, Bacillus subtilis
Procedure: Standardized MIC was determined using the microdilution method, as recommended by the Clinical and Laboratory Standards Institute (CLSI). […] The B. subtilis inoculate (100 μL) contained 1.0 × 10^6 CFU/mL. The minimum inhibitory concentration (MIC) was defined as the lowest antibiotic concentration that prevented turbidity in the inoculate following incubation at 37 °C for a duration of 24 h. Gentamycin was used at 0.1 μg/mL (10% of MIC) in further experiments.

[5] = tested on: B. subtilis 168 strain; experiment: Gentamicin-potentiating activity, growth curves (Bioscreen C); format: cell-based, Bacillus subtilis; settings: for MIC with Gm (B. subtilis): potentiator concentration in the presence of 0.1 µg Gm (0.1 MIC; MICGm = 1 µg/mL), potentiator varied with an interval of 10 μM
Procedure: We selected the B. subtilis 168 strain as the model micro-organism to determine the potentiating properties of the new compounds. The active center of the proposed target protein, cystathionine γ-lyase, has a conservative structure for a wide range of micro-organisms, including pathogens; thus, B. subtilis can be used as a less toxic model object containing the CGL enzyme for testing. The efficiency of CGL inhibitors was assessed by the standard minimum inhibitory concentration (MIC) assay. The potentiating properties were investigated according to the technique reported previously for NL2 [10]. The MIC of gentamicin for B. subtilis cells is 1 μg/mL, which is consistent with known CLSI breakpoints for the genus Bacillus. […] In addition, we tested the effect of the compounds on the generation of hydrogen sulfide by the B. subtilis cell culture (Figure 2F). […] The latter effect, however, may be attributed to the presence of the sulfur atom in the structure of these inhibitors assuming their possible hydrolysis if not bound to the enzyme in the cellular environment.
(§1) Gentamicin-potentiating activity testing of the compounds in B. subtilis. The growth curves of B. subtilis were obtained with a Bioscreen C automated growth curve analysis system (Oy Growth Curves Ab, Finland, Helsinki). The B. subtilis strain 168 was grown overnight in LB at 37 °C and diluted with fresh medium (1:100) containing the antibiotic and a test compound as specified in the text and figure captions. Aliquots (150 μL) of each mixture were added into plate wells in triplicate and incubated with continuous agitation at 37 °C. The optical density at 600 nm (OD600) was recorded automatically for 24 h. The results were averaged over three replicate experiments to plot the time dependences of bacterial growth.
Figure 2 Determination of the potentiating properties of compounds. Representative growth curves of B. subtilis 168 strain in the presence of 0.1 μg/mL gentamicin (Gm) and potentiators: MNS2 (A), MNS3 (B), MNS4 (C), MNS5 (D) and MNS6 (E). The cells were grown at 37 °C with aeration in a Bioscreen C automated growth assay system. The curves represent the mean values of three independent experiments with an error of <5%. Evaluation of hydrogen sulfide production by B. subtilis 168 cells in the presence of the potentiators studied (F): MNS2 (100 µM), MNS3 (90 µM), MNS4 (60 µM), MNS5 (60 µM) and MNS6 (100 µM). The filter paper strips soaked in 2% lead acetate solution show brown staining with PbS salt as a result of H2S evaporation by the bacterial suspension. The numbers indicate H2S production relative to wild-type cells. […]

[6] = tested on: B. subtilis 168 strain; experiment: Kanamycin A-potentiating activity, growth curves; format: cell-based, Bacillus subtilis; settings: potentiator concentration in the presence of 0.25 µg Km (MICKm = 2 µg/mL); potentiator varied with an interval of 10 μM
Procedure: The potentiating properties and minimum inhibitory concentration (MIC) were assessed similarly to the testing with gentamicin, and additionally, the previously reported MNS1 was used for comparison (Figure 3). The MIC of kanamycin A for B. subtilis cells is 2 μg/mL. […] A lower cytotoxic effect on HEK273T culture (Table 1) allows us to conclude that MNS3 is the hit compound in the series (the experimental curves for CC50 estimation via the MTT test are given in the Supplementary Information File).
as §1
Figure 3 Determination of the potentiating properties of compounds.

[7] = tested on: hydrogen sulfide production by B. subtilis 168 cells; experiment: Hydrogen sulfide generation, lead acetate paper strips; format: cell-based, Bacillus subtilis; settings: B. subtilis cell culture, Figure 2F
Procedure: The generation of hydrogen sulfide in B. subtilis cells was monitored according to the published protocol using lead acetate as a colorimetric sensor [29]. The inner surface of a cell culture flask was equipped above the level of the liquid with a standardized paper strip soaked with 2% aq. Pb(OAc)2. Overnight cultures were diluted with LB (1:50) and incubated at 37 °C under aeration conditions for 16–18 h. The test compounds (MNS1 and NL2) were used at 32 μM; LB without supplements was used as a negative control. Paper strips stained with the formed PbS precipitate were scanned using an AlphaImager gel imaging system (BioTechne, USA, Minneapolis, Minnesota). The results were normalized to the optical density of the culture.
Figure 2 Determination of the potentiating properties of compounds. Representative growth curves of B. subtilis 168 strain in the presence of 0.1 μg/mL gentamicin (Gm) and potentiators: MNS2 (A), MNS3 (B), MNS4 (C), MNS5 (D) and MNS6 (E). The cells were grown at 37 °C with aeration in a Bioscreen C automated growth assay system. The curves represent the mean values of three independent experiments with an error of <5%. Evaluation of hydrogen sulfide production by B. subtilis 168 cells in the presence of the potentiators studied (F): MNS2 (100 µM), MNS3 (90 µM), MNS4 (60 µM), MNS5 (60 µM) and MNS6 (100 µM). The filter paper strips soaked in 2% lead acetate solution show brown staining with PbS salt as a result of H2S evaporation by the bacterial suspension. The numbers indicate H2S production relative to wild-type cells. TEXT PRINTED IN THE PICTURE: (F) MNS2: 100% | (F) MNS3: >120% | (F) MNS4: >120% | (F) MNS5: <35% | (F) MNS6: <35% DOUBTS OF THE COPYIST ABOUT THIS PICTURE: Panel F: the picture prints no measure for the percentages, so they are given without one. / Panel F: the column "Control" (100%) is left out because it is not a substance.

[8] = MTT test, cytotoxicity; format: cell-based; settings: human, HEK293T cells; MTT test, 72 h; concentration required to inhibit 50% cell culture growth; read-out: CC50 of compounds (HEK273T)
Procedure: (§2) HEK293T cells were grown in the DMEM:F12 (2:1) medium supplemented with 10% FBS (BioSera, Cholet, France), 2 mM L-glutamine, 100 U/mL penicillin and 100 μg/mL streptomycin in the presence of 5% CO2 at 37 °C. Cells were re-seeded every three days at a ratio of 1:3 or 1:5.
(§3) Stock solutions were diluted in DMSO (BioReagent of molecular biology grade, Sigma, St. Louis, MO, USA), and the final DMSO concentration was 1%. After 24 h (30–40% monolayer), the solutions of the studied compounds diluted at different concentrations were introduced to the culture medium. After the incubation at 37 °C in 5% CO2 for 72 h, a freshly prepared solution of thiazolyl blue tetrazolium bromide at a final concentration of 0.4 mg/mL was added to each well of the plate. Incubation was performed at +37 °C for 2 h. The medium containing unreacted MTT was removed via aspiration. The formed formazan dye was dissolved in 100 µL of isopropanol added to each well of the plate. The result of the analysis was evaluated using a Tecan Spark spectrophotometer (absorbance at 544 nm).

[9] = tested on: HEK273T; experiment: MTT test, cytotoxicity; format: cell-based; settings: in words, conclusions
Procedure: as §2, §3

[10] = tested on: B. subtilis 168 strain; set-up: method as in PMID 39970094; settings: parent MNS1, in the presence of 0.1 µg Gm; previously known data for gentamicin potentiation; cited from earlier work
[11] = biological target: hCSE; set-up: method as in PMID 34112687, PMID 37110802, doi:10.1016/j.mencom.2024.02.030, PMID 39970094, PMID 38771206; settings: Figure 1; cited from earlier work; remark: listed apart in the source

Cc1oc(Cn2ccc3ccc(Br)cc32)cc1C(=O)O [NL2]
IC50 [1]: 1.8 ± 0.5 µM | IC50 [2]: 25.3 ± 2.6 µM | Kd ([3]; Figure 1, marked "our data", read-out: KD (bCSE)): 1.1 ± 0.3 µM

CNC(C)C1CCC(N)C(OC2C(N)CC(N)C(OC3OCC(C)(O)C(NC)C3O)C2O)O1 (stereo not shown) [gentamicin]
MIC ([4]; Bacillus subtilis, 37 °C, 24 h, read-out: MIC of gentamicin for B. subtilis cells): 1 µg/mL

kanamycin A
MIC of kanamycin A for B. subtilis cells [4]: 2 µg/mL

Nc1cc(Cn2ncc3ccc(Br)cc32)sc1C(=O)[O-].[K+] [MNS3, Potassium 3-Amino-5-((6-bromo-1H-indazol-1-yl)methyl)thiophene-2-carboxylate]
MIC with Gm (B. subtilis) [5]: ~90 µM | MIC with Km (B. subtilis) [6]: 90 µM | rate of hydrogen sulfide generation compared to the control group of cells [7]: enhanced | CC50 at 72 h [8]: 190 µM | cytotoxicity in HEK273T [9]: moderate cytotoxicity

Nc1cc(Cn2ccc3ccc(Br)cc32)sc1C(=O)[O-].[K+] [MNS2, Potassium 3-Amino-5-((6-bromo-1H-indol-1-yl)methyl)thiophene-2-carboxylate]
inhibition of B. subtilis growth in combinations with gentamicin ([5]; concentration range from 50 to 100 µM): failed to inhibit | rate of hydrogen sulfide generation compared to the control group of cells [7]: enhanced | CC50 at 72 h [8]: 25 µM

O=C(O)c1ccc(Cn2ccc3ccc(Br)cc32)cc1 [3h]
Kd ([3]; Figure 1, read-out: KD (bCSE)): 0.8 ± 0.3 µM

O=C(O)c1cc(Cn2ccc3ccc(-c4cc5cccc(Cl)c5s4)cc32)n[nH]1 [NL3]
IC50 [1]: 0.7 ± 0.2 µM | IC50 [2]: 3.4 ± 0.8 µM

O=C(O)CNC(=O)Cn1ccc2ccc(Br)cc21 [NL1]
IC50 [1]: 5.8 ± 2.7 µM | IC50 [2]: 29.2 ± 2 µM

Cc1oc(Cn2ncc3ccc(Br)cc32)cc1C(=O)O [MNS5, 5-((6-Bromo-1H-indazol-1-yl)methyl)-2-methylfuran-3-carboxylic Acid]
MIC with Gm (B. subtilis) [5]: ~60 µM | MIC with Km (B. subtilis) [6]: 100 µM | rate of hydrogen sulfide generation compared to the control group of cells [7]: significantly reduced | CC50 at 72 h [8]: 250 µM

Nc1cc(Cn2cc3ccc(Br)cc3n2)sc1C(=O)[O-].[K+] [MNS4, Potassium 3-Amino-5-((6-bromo-2H-indazol-2-yl)methyl)thiophene-2-carboxylate]
MIC with Gm (B. subtilis) [5]: ~60 µM | MIC with Km (B. subtilis) [6]: 70 µM | CC50 at 72 h [8]: 87 µM | cytotoxicity in HEK273T [9]: moderate cytotoxicity

Nc1csc(Cn2ccc3ccc(Br)cc32)c1 [MNS1]
MIC with Km (B. subtilis) [6]: 100 µM | CC50 at 72 h [8]: 30 µM | MIC with Gm (B. subtilis) [10]: ~50 µM | Kd ([3]; Figure 1, read-out: KD (bCSE)): 0.59 ± 0.04 µM | Kd ([3]; introduction, read-out: binding constant with CGL): ~0.6 µM | Kd [11]: 11.6 ± 0.1 µM

Cc1oc(Cn2cc3ccc(Br)cc3n2)cc1C(=O)O [MNS6, 5-((6-Bromo-2H-indazol-2-yl)methyl)-2-methylfuran-3-Carboxylic Acid]
rate of hydrogen sulfide generation compared to the control group of cells [7]: significantly reduced | CC50 at 72 h [8]: 260 µM
